According to US9605013B2, “Derivatives of hemin with antibacterial and antiviral activity” (OBSCHESTVO S OGRANICHENNOI OTVETSTVENNOSTIYU …, priority 2011, dated 2017):

Legend:
Assay type in all cases: cell-based
[1] = tested on: Staphylococcus aureus No. 3797 (MRSA); experiment: Antibacterial specific activity, twofold dilutions, visual growth evaluation; conditions: St. aur No. 3797 MRSA; 36° C., 24 hours
Procedure, shortened: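 Twofold dilution series, water- or DMSO-soluble compounds; 5×10^5 CFU/ml; 36° C., 24 h; visual growth read; MIC = last suppressing dilution.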

[2] = tested on: Bacillus subtilis BKM B-501; experiment: Antibacterial activity, serial dilutions in liquid MH medium; conditions: for MIC: MH medium, 20 h, 37° C., 100% growth inhibition; for MBC: no colonies on agarized MH medium
Procedure, shortened: (§1)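 Broth microdilution in Mueller-Hinton medium at 37 °C with stirring, using exponential-phase cultures seeded at 5×10^4 to 1×10^5 cells/mL with twofold serial compound dilutions. Growth inhibition read as A595 after 20 h, corrected for compound absorbance; MIC and MBC determined.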

[3] = tested on: Micrococcus luteus BKM Ac-2230; experiment: as above; conditions: for MIC: MH medium, 20 h, 37° C., 100% growth inhibition; for MBC: no colonies on agarized MH medium
Procedure, shortened: as §1

[4] = tested on: Staphylococcus aureus 209P; experiment: as above; conditions: for MBC: no colonies on agarized MH medium
Procedure, shortened: as §1

| Compound | MIC [1] [µM] | MIC [2] [µM] | MBC [2] [µM] | MIC [3] [µM] | MBC [3] [µM] | MBC [4] [µM] | MIC ([4]; MH medium, 20 h, 37° C., 100% growth inhibition) [µM] |
| --- | --- | --- | --- | --- | --- | --- | --- |
| 6,7-bis-(Amide N^α-Glycyl)-Protohemin (IX) [IV] | 3.12 | 1.6 | 1.6 | 0.8 | 0.8 |  |  |
| 6,7-bis-[(Diamide N^α-L-Arginyl)-L-glutamyl]-Protohemin (IX) |  | 1.6 | 1.6 | 0.8 | 0.8 | 25 |  |
| C=CC1=C(C)c2cc3[n-]c(cc4[n-]c(cc5nc(cc1n2)C(C)=C5C=C)c(C)c4CCC(=O)N[C@@H](CCCNC(=N)N)C(N)=O)c(CCC(=O)N[C@@H](CCCNC(=N)N)C(N)=O)c3C.[Cl-].[Fe+3] [II, 6,7-bis-(Amide N^α-Arginyl)-Protohemin (IX)] | 50 | 0.8 | 0.8 | 0.8 | 0.8 | 6.3 |  |
| C=CC1=C(C)c2cc3[n-]c(cc4[n-]c(cc5nc(cc1n2)C(C)=C5C=C)c(C)c4CCC(=O)N[C@@H](CO)C(N)=O)c(CCC(=O)N[C@@H](CO)C(N)=O)c3C.[Cl-].[Fe+3] [V, 6,7-bis-(Amide N^α-Seryl)-Protohemin (IX)] | 1.56 | 1.6 | 1.6 | 0.8 | 0.8 | 12.5 |  |
| C=CC1=C(C)c2cc3[n-]c(cc4[n-]c(cc5nc(cc1n2)C(C)=C5C=C)c(C)c4CCC(=O)N[C@@H](CO)C(=O)O)c(CCC(=O)N[C@@H](CO)C(=O)O)c3C.[Cl-].[Fe+3] [VI, 6,7-bis-(N^α-Seryl]-Protohemin (IX)] | 0.78 | 12.5 | 25 | 6.3 | 25 |  | 50 |
